Patent publication US20100286023A1, “Compositions and Methods for Increasing Muscle Mass, Strength, and Functional Performance in the Elderly” (priority 2008, published 2010)

Experiments:
muscle protein synthesis = conditions: tightly controlled laboratory setting, glucose infused to maintain euglycemia; cited from earlier work
anesthetized rabbits = test: Amino acid infusion with arginine raised to about 50% of the mixture (Example 6); assay type: in vivo, rabbit
From the text: Muscle protein synthesis was stimulated in anesthetized rabbits when arginine was increased to about 50% of the total mixture of amino acids infused. […] The mechanism by which arginine activates the initiation of protein synthesis is the same as leucine. Further, arginine is relatively deficient in the elderly. Thus, addition of arginine may work in concert with leucine to activate protein synthesis in elderly.

Row | Molecule | Effect on muscle protein synthesis compared with EAAs (muscle protein synthesis) | Muscle protein synthesis (anesthetized rabbits; arginine about 50% of the total mixture of amino acids infused) | Muscle protein breakdown (anesthetized rabbits; arginine added to the amino acid solution) | Net muscle catabolism (anesthetized rabbits; post-absorptive rabbits)
1 | insulin: hormone, pharmacological treatment compared with EAAs | in the same range of effectiveness as EAAs |  |  | 
2 | N=C(N)NCCC[C@H](N)C(=O)O [arginine] |  | stimulated | unchanged | virtually completely reversed
